# Laboratory results reported in patent US10745400B2, “Inhibition of BMP signaling, compounds, compositions and uses thereof” (Vanderbilt University, priority 2018, dated 2020).
# Assays:
# ALK4 = target: T1, ALK4 (Homo sapiens, UniProt P36896); test: Kinase assay (33P-ATP filter-binding), ALK4; assay type: biochemical; details: read-out: Kinase Selectivity ALK4
# T1 sequence (P36896 24-505): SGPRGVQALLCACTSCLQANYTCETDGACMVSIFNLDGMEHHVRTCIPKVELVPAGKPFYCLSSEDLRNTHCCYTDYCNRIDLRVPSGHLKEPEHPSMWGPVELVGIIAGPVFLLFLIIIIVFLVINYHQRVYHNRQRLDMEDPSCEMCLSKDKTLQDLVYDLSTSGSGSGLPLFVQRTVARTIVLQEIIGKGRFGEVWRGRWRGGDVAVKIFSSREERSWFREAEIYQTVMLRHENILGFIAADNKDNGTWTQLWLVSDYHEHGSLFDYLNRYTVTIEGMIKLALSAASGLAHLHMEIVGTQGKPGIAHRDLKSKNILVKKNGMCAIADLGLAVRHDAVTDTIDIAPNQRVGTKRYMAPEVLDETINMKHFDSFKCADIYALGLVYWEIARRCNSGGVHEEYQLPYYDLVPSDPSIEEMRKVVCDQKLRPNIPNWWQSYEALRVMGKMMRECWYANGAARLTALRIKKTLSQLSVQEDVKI
# Method: (§1) The kinase assays were carried out briefly as follows. Substrate was prepared in Base Reaction Buffer (20 mM Hepes (pH 7.5), 10 mM MgCl2, 1 mM EGTA, 0.02% Brij35, 0.02 mg/ml BSA, 0.1 mM Na3VO4, 2 mM DTT, 1% DMSO). The indicated kinases was delivered into the substrate solution and allowed to gently mix. Next, the specific compound was delivered in DMSO into the kinase mixture by Acoustic technology (Echo550; nanoliter range), and allowed to incubate for 20 minutes at room temperature. Next, ^33P-ATP was delivered into the reaction mixture to initiate the reaction and allowed to incubate at room temperature. After 2 hours, the reactions were spotted onto P81 ion exchange paper and the kinase activity is detected by the filter-binding method.
# BMPR2 = target: T2, BMPR2 (Homo sapiens, UniProt Q13873); test: Kinase assay (33P-ATP filter-binding), BMPR2; assay type: biochemical; details: read-out: Kinase Selectivity BMPR2
# T2 sequence (Q13873 27-1038): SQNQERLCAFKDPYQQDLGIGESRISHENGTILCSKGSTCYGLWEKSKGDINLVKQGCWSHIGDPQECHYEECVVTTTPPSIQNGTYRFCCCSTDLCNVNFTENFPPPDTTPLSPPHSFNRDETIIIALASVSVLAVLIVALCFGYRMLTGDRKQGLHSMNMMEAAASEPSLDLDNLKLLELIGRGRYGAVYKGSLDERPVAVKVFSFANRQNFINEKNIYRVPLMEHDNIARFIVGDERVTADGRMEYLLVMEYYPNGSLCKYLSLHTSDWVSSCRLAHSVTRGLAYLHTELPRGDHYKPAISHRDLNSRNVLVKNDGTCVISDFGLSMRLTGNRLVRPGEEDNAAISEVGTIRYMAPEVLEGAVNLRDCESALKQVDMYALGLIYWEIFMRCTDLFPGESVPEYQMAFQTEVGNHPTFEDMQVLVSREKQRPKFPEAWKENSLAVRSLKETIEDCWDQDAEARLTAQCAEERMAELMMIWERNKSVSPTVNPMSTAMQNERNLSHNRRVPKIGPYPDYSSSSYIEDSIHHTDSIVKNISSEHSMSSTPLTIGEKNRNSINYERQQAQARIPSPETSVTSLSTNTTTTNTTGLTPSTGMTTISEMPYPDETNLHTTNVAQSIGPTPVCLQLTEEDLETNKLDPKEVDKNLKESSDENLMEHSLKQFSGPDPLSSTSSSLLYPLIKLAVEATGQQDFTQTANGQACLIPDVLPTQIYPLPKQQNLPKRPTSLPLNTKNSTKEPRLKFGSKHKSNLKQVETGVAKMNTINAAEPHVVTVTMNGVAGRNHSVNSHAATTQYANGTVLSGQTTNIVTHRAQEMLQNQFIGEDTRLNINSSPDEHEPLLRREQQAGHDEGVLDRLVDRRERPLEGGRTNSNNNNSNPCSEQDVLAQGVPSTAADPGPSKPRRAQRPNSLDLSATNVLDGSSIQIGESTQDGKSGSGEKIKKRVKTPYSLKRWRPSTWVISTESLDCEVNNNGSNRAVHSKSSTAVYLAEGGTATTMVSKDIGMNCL
# Method: as §1
# ALK5 = target: T3, ALK5 (Homo sapiens, UniProt P36897); test: Kinase assay (33P-ATP filter-binding), ALK5; assay type: biochemical; details: read-out: Kinase Selectivity ALK5
# T3 sequence (P36897 34-503): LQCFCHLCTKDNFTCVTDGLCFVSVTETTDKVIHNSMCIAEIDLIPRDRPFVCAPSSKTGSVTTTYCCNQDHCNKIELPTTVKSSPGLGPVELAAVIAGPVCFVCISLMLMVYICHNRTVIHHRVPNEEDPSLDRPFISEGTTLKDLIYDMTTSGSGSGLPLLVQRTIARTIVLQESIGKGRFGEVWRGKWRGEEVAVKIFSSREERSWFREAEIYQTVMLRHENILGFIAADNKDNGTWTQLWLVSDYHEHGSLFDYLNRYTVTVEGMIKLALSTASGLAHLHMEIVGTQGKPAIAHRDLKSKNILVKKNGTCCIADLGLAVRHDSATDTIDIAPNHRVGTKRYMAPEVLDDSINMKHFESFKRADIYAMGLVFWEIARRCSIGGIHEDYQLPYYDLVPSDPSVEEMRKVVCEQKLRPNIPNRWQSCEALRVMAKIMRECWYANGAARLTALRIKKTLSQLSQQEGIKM
# Method: as §1
# ALK3/BMPR1A = ALK3/BMPR1A (Homo sapiens, UniProt P36894); test: Kinase assay (33P-ATP filter-binding), ALK3; assay type: biochemical; details: 1 mM; read-out: Kinase Selectivity ALK3/BMPR1A (1 mM)
# ALK3/BMPR1A, sequence (P36894 24-532): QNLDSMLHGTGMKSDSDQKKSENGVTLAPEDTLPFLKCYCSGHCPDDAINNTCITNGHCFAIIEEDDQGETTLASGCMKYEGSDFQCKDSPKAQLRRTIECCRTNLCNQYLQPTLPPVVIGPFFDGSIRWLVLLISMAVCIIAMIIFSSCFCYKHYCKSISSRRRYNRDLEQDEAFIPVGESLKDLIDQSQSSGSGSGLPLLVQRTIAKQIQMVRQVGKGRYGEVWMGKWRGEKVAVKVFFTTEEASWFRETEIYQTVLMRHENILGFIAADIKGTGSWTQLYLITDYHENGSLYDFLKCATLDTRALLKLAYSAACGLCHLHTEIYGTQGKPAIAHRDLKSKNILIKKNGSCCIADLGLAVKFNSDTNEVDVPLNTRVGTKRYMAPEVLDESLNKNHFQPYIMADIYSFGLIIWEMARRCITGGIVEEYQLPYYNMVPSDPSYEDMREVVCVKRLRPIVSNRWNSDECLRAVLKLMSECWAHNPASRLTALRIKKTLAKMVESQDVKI
# Method: as §1
# [1] = Intrinsic clearance, mouse; assay type: in vitro ADME; details: for CLint scaled: mouse
# [2] = system: BMP-responsive C2C12 mouse myoblast cells stimulated with BMP4; test: BMP4 cell assay (Id1 promoter-firefly luciferase reporter); assay type: cell-based; details: BMP4 50 ng/mL, overnight
# Method: The BMP4 cell assay were carried out briefly as follows. Stably transfected BMP-responsive C2C12 mouse myoblast cells (containing the Idl promoter-firefly luciferase reporter) were seeded in 96-well plates and incubated overnight with the compounds and BMP4 (50 ng/mL). The cells were then lysed, and cell extracts were then subjected to the firefly luciferase assay using Steady-Glo luciferase assay kit (Promega). The results were normalized to cell titers, as measured using Cell Titer-Glo luminescence assay (Promega). […] Relative activity was quantified by the ratio of firefly to Renilla luciferase activities using the dual luciferase assay kit (Promega).
# Protein binding, mouse = assay type: in vitro ADME
# KDR = KDR (Homo sapiens, UniProt P35968); test: Kinase assay (33P-ATP filter-binding), KDR; assay type: biochemical; details: read-out: Kinase Selectivity KDR
# KDR, sequence (P35968 20-1356, species assumed): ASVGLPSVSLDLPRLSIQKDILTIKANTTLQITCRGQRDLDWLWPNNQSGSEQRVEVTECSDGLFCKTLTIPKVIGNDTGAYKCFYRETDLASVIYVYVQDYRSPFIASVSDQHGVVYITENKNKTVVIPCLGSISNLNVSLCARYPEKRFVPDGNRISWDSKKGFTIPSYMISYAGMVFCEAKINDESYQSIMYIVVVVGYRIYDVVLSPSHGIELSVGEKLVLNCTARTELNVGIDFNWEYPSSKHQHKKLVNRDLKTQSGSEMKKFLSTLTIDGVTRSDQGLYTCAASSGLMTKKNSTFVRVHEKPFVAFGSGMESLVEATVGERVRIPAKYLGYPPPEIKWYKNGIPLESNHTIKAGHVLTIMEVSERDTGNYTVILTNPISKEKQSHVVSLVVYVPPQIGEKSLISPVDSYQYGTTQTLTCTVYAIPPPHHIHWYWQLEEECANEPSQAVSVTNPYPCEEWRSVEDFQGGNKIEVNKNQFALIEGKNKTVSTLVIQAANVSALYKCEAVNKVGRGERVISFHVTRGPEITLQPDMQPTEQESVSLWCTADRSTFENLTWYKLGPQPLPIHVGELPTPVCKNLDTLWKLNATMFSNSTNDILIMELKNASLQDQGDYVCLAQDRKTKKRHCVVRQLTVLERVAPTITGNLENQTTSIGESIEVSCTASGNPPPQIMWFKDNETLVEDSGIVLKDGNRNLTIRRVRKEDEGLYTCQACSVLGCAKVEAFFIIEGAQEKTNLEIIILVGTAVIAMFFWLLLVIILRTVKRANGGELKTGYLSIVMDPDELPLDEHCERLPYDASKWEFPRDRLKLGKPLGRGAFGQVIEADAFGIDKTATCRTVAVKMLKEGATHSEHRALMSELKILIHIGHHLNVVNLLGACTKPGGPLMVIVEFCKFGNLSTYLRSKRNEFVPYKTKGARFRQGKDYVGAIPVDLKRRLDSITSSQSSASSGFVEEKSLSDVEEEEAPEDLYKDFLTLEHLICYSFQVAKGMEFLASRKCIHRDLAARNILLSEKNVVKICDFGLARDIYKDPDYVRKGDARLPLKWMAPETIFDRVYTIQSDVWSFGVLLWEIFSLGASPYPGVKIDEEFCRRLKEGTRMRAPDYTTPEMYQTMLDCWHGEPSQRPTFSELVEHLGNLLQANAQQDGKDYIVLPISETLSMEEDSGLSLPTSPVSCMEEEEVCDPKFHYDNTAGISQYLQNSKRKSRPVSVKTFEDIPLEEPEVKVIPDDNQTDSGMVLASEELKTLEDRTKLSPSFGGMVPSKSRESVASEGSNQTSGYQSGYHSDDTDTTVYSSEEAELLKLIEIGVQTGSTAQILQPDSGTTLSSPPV
# Method: as §1
# PDGFRb = PDGFRb (Homo sapiens, UniProt P09619); test: Kinase assay (33P-ATP filter-binding), PDGFRb; assay type: biochemical; details: read-out: Kinase Selectivity PDGFRb
# PDGFRb, sequence (P09619 33-1106, species assumed): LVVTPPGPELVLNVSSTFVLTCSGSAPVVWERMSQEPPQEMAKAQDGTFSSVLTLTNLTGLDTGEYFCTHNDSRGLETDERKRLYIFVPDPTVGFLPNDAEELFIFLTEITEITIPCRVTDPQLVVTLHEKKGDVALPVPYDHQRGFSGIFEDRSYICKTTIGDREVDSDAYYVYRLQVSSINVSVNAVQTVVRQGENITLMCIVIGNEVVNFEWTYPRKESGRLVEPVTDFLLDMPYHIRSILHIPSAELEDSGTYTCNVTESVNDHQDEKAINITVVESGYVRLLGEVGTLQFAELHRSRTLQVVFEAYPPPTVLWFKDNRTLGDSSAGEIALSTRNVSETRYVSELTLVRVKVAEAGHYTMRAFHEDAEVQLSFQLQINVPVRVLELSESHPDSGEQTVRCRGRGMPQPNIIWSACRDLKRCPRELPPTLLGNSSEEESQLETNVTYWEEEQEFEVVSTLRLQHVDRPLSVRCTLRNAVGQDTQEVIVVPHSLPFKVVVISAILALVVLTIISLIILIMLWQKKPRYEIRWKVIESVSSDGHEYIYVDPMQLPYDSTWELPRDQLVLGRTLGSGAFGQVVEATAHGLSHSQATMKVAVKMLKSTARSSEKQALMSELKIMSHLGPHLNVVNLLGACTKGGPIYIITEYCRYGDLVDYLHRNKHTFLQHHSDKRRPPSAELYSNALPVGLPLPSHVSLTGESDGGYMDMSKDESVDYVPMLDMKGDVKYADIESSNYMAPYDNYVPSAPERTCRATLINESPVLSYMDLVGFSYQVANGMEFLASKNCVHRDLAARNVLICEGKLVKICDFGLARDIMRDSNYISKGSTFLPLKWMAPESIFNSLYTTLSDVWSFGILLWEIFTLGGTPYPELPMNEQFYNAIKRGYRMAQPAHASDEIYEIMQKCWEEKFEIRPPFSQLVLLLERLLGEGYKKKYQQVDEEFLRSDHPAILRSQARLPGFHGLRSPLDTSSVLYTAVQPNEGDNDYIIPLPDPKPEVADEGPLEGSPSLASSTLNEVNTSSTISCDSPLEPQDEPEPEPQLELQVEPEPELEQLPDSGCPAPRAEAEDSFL
# Method: as §1
# Protein binding, human = assay type: in vitro ADME
# TGFbR2 = TGFbR2 (Homo sapiens, UniProt P37173); test: Kinase assay (33P-ATP filter-binding), TGFbR2; assay type: biochemical; details: read-out: Kinase Selectivity TGFbR2
# TGFbR2, sequence (P37173 23-567, species assumed): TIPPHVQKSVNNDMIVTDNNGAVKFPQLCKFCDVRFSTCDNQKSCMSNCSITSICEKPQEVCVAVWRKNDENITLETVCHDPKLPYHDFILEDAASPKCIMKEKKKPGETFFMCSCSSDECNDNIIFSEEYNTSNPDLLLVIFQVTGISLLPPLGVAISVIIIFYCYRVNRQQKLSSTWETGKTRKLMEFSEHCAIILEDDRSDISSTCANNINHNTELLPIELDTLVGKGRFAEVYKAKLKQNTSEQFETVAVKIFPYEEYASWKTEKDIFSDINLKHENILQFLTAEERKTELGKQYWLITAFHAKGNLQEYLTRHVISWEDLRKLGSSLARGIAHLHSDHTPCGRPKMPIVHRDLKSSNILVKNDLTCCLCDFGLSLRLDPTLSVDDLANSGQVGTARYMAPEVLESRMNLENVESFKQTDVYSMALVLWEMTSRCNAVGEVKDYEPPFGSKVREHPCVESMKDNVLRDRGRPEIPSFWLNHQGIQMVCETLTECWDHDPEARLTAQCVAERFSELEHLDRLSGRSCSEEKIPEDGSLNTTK
# Method: as §1
# [3] = Intrinsic clearance, human; assay type: in vitro ADME; details: for CLint scaled: human
# ALK1/ACVRL1 = ALK1/ACVRL1 (Homo sapiens, UniProt P37023); test: Kinase assay (33P-ATP filter-binding), ALK1; assay type: biochemical; details: read-out: Kinase Selectivity ALK1/ACVRL1
# ALK1/ACVRL1, sequence (P37023 22-503): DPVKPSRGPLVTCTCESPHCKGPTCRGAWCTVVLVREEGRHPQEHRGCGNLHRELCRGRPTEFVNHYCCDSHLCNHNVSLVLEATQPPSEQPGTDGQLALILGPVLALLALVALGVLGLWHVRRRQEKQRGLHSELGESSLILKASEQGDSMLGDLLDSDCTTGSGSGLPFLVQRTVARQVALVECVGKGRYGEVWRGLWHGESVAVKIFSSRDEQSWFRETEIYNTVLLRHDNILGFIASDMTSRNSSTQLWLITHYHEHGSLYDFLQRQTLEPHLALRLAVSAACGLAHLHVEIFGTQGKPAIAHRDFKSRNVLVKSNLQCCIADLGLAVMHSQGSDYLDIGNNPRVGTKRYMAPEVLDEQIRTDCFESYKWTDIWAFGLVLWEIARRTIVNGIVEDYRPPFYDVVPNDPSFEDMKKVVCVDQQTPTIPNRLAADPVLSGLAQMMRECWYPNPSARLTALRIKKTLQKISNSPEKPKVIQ
# Method: as §1
# ALK6 = ALK6 (Homo sapiens, UniProt O00238); test: Kinase assay (33P-ATP filter-binding), ALK6; assay type: biochemical; details: read-out: Kinase Selectivity ALK6
# ALK6, sequence (O00238 14-502): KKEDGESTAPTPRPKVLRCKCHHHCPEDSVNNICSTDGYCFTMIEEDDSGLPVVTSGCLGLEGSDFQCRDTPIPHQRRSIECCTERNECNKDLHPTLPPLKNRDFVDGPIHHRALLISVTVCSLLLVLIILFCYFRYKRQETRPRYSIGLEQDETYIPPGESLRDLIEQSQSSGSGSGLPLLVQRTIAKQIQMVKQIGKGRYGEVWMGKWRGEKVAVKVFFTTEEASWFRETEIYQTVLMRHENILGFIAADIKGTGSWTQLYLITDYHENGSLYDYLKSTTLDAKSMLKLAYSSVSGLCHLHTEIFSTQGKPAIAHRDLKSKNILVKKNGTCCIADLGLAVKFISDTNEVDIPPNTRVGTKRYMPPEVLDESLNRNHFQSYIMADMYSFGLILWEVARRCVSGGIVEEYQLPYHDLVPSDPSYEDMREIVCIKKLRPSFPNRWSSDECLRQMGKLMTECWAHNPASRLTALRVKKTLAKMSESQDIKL
# Method: as §1
# [4] = CL-Hep, value in parentheses, read-out: Intrinsic Clearance Human (CL-Hep)
IC50 (ALK4),IC50 (BMPR2),IC50 (ALK5),IC50 (ALK3/BMPR1A),"CLint scaled ([1]; CL-Hep, value in parentheses, read-out: Intrinsic Clearance Mouse (CL-Hep))",CLint scaled ([1]; read-out: Intrinsic Clearance Mouse),"IC50 ([2]; Mus musculus, C2C12, C2C12 cells)","Protein Binding (% Free) Mouse (Protein binding, mouse)",IC50 (KDR),IC50 (PDGFRb),"Protein Binding (% Free) Human (Protein binding, human)",IC50 (TGFbR2),"CLint scaled [3, 4]",CLint scaled ([3]; read-out: Intrinsic Clearance Human),IC50 (ALK1/ACVRL1),IC50 (ALK6),Intrinsic Clearance Mouse [1],"Intrinsic Clearance Mouse (CL-Hep) ([1]; CL-Hep, value in parentheses)",IC50 ([2]; C2C12 cells),"Intrinsic Clearance Human (CL-Hep) ([3]; CL-Hep, value in parentheses)",SMILES
390 nM,> 100000 nM,717 nM,< 5.1 nM,< 32.9 mL/min/kg,< 49.5 mL/min/kg,29.6 nM,8.52 % Free,36900 nM,6930 nM,10.3 % Free,498 nM,14 mL/min/kg,46.7 mL/min/kg,89.2 nM,188 nM,,,,,Cc1cc(-c2cnc3cc(-c4ccc(C5CNCCN5)cc4)ccn23)c2cc(F)ccc2n1 (centres unmarked) [Compound 17]
386 nM,> 100000 nM,456 nM,< 5.1 nM,,,,5.48 % Free,31400 nM,6490 nM,7.33 % Free,2680 nM,,,16.4 nM,231 nM,<49.5 mL/min/kg,(<32.94) mL/kg/min,34.9 nM,(12.4) mL/kg/min,Cc1cc(-c2cnc3cc(-c4ccc(C5CNCCN5)cc4)ccn23)c2cc(F)ccc2n1 (centres unmarked) [Compound 18]
113 nM,> 50000 nM,232 nM,< 5.1 nM,,,,,39300 nM,5200 nM,,388 nM,17.5 mL/min/kg,,72.1 nM,128 nM,,,,,Cc1cc(-c2cnc3cc(-c4ccc(C5COCCN5)cc4)ccn23)c2cc(F)cc(F)c2n1 (centres unmarked) [Compound 22]
